# Measurements taken from ChEMBL document CHEMBL1158373, “GRIND-based 3D-QSAR and CoMFA to investigate topics dominated by hydrophobic interactions: the case of hERG K+ channel blockers” (Eur J Med Chem, 2009).
# Target: Voltage-gated inwardly rectifying potassium channel KCNH2 (Homo sapiens, UniProt Q12809)
# Assay: (§1) Inhibition of human ERG in MCF7 cells
# Conditions: not given
# Chain of Voltage-gated inwardly rectifying potassium channel KCNH2 (Q12809 whole entry): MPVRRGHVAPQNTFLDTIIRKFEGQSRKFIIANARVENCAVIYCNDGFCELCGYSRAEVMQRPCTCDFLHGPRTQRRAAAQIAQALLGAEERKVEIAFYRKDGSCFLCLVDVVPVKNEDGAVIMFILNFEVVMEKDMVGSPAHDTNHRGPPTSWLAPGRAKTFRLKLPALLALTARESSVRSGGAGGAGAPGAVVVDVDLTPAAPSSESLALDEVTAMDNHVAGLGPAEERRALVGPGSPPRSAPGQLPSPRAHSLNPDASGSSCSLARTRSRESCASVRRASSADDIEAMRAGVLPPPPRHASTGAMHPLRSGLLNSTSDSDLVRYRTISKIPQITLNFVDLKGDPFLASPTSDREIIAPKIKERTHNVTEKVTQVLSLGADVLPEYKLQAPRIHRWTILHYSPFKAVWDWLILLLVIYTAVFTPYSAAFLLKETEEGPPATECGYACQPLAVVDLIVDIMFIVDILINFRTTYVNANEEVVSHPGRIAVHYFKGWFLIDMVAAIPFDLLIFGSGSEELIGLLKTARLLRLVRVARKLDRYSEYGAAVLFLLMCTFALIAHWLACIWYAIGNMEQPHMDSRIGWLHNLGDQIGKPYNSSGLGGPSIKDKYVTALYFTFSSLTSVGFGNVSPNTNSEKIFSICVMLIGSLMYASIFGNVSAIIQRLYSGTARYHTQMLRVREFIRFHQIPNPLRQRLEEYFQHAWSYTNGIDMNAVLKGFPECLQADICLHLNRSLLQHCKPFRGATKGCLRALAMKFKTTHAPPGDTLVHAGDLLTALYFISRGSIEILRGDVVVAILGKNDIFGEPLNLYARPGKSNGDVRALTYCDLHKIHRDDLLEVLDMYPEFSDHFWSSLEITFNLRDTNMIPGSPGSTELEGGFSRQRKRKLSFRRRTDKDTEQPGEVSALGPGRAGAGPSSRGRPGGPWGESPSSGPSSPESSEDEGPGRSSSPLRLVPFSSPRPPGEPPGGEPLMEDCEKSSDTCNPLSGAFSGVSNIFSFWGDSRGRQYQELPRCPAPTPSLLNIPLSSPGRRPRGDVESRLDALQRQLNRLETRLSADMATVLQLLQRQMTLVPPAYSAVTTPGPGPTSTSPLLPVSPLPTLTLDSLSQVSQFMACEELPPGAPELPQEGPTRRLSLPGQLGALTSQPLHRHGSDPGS
row,Compound,IC50 [µM]
1,COc1c(N2CCNC(C)C2)c(F)cc2c(=O)c(C(=O)O)cn(C3CC3)c12 (stereo not given) [GATIFLOXACIN],129

# Same assay, conditions: human, MCF7 cells
row,Compound,pIC50
1,C[C@@H]1CN(c2c(F)c(N)c3c(=O)c(C(=O)O)cn(C4CC4)c3c2F)C[C@H](C)N1 [SPARFLOXACIN],4.58

# Same assay, conditions: human, mcf7
row,Compound,pIC50
1,CN(c1nccc(=O)[nH]1)C1CCN(c2nc3ccccc3n2Cc2ccc(F)cc2)CC1 [MIZOLASTINE],6.45

# Target: hERG (KCNH2) (Homo sapiens, UniProt Q12809)
# Assay: as §1
# Conditions: human, mcf7
# Chain of hERG (KCNH2) (Q12809 whole entry): as above
row,Compound,IC50 [µM]
1,CN1CCN(CCCCN2C(=O)CN(/N=C/c3ccc(-c4ccc(Cl)cc4)o3)C2=O)CC1 [AZIMILIDE],0.562

# Test system: not listed separately
# Assay: Lipophilicity, log D at pH 7.0
# Conditions: buffer
row,Compound,logD
1,CSc1ccc2c(c1)N(CCC1CCCCN1C)c1ccccc1S2 (stereo not given) [THIORIDAZINE],3.83
2,O=C1NCCN1CCN1CCC(c2cn(-c3ccc(F)cc3)c3ccc(Cl)cc23)CC1 [SERTINDOLE],2.65
3,CC(C)COCC(CN(Cc1ccccc1)c1ccccc1)N1CCCC1 (stereo not given) [BEPRIDIL],4.49
4,CCCCN(CCCC)CCC(O)c1cc2c(Cl)cc(Cl)cc2c2cc(C(F)(F)F)ccc12 (stereo not given) [HALOFANTRINE],5.68
5,O=C(CCCN1CCC(O)(c2ccc(Cl)cc2)CC1)c1ccc(F)cc1 [HALOPERIDOL],1.82
6,C1CCC(C(CC2CCCCN2)C2CCCCC2)CC1 (stereo not given) [PERHEXILINE],2.81
7,CN(C)CCCN1c2ccccc2Sc2ccc(Cl)cc21 [CHLORPROMAZINE],2.99
8,O=C1Cc2cc(CCN3CCN(c4nsc5ccccc45)CC3)c(Cl)cc2N1 [ZIPRASIDONE],3.93
9,CN(CCOc1ccc(NS(C)(=O)=O)cc1)CCc1ccc(NS(C)(=O)=O)cc1 [DOFETILIDE],0.68
10,CN1CCN(CCCCN2C(=O)CN(/N=C/c3ccc(-c4ccc(Cl)cc4)o3)C2=O)CC1 [AZIMILIDE],2.05
11,Fc1ccc(Cn2c(NC3CCNCC3)nc3ccccc32)cc1 [TECASTEMIZOLE],0.16
12,Cc1c(F)c(N2CCNC(C)C2)cc2c1c(=O)c(C(=O)O)cn2C1CC1 (stereo not given) [GREPAFLOXACIN],-1.47
13,CN1CCN(C2=Nc3cc(Cl)ccc3Nc3ccccc32)CC1 [CLOZAPINE],4.41
14,CN1C2CCCC1CC(NC(=O)c1nn(C)c3ccccc13)C2 (stereo not given) [GRANISETRON],-1.72
15,O=c1[nH]c2ccccc2n1CCCN1CCC(n2c(=O)[nH]c3cc(Cl)ccc32)CC1 [DOMPERIDONE],3.15
16,COc1ccc([C@@H]2Sc3ccccc3N(CCN(C)C)C(=O)[C@@H]2OC(C)=O)cc1 [DILTIAZEM],1.62

row,Compound,logD
1,COc1ccc(CCN2CCC(Nc3nc4ccccc4n3Cc3ccc(F)cc3)CC2)cc1 [ASTEMIZOLE],4.14
2,COc1ccc(Cl)cc1C(=O)NCCc1ccc(S(=O)(=O)NC(=O)NC2CCCCC2)cc1 [GLYBURIDE],2.23
3,C[C@@H]1CN(c2c(F)c(N)c3c(=O)c(C(=O)O)cn(C4CC4)c3c2F)C[C@H](C)N1 [SPARFLOXACIN],-3.4
4,Cc1nc2n(c(=O)c1CCN1CCC(c3noc4cc(F)ccc34)CC1)CCCC2 [RISPERIDONE],0.71
5,O=c1[nH]c2ccccc2n1C1CCN(CCCC(c2ccc(F)cc2)c2ccc(F)cc2)CC1 [PIMOZIDE],5.11
6,CC(C)(C)c1ccc(C(O)CCCN2CCC(C(O)(c3ccccc3)c3ccccc3)CC2)cc1 (stereo not given) [TERFENADINE],4.11
7,CN(c1nccc(=O)[nH]1)C1CCN(c2nc3ccccc3n2Cc2ccc(F)cc2)CC1 [MIZOLASTINE],1.96
8,COc1cc(N)c(Cl)cc1C(=O)NC1CCN(CCCOc2ccc(F)cc2)CC1OC (stereo not given) [CISAPRIDE],2.05
9,COc1c(N2CCNC(C)C2)c(F)cc2c(=O)c(C(=O)O)cn(C3CC3)c12 (stereo not given) [GATIFLOXACIN],-2.96
10,COCC(=O)O[C@]1(CCN(C)CCCc2nc3ccccc3[nH]2)CCc2cc(F)ccc2[C@@H]1C(C)C [MIBEFRADIL],1.96
11,CN(C)CCC=C1c2ccccc2CCc2ccccc21 [AMITRIPTYLINE],3.33
12,COC(=O)[C@H]1[C@@H](OC(=O)c2ccccc2)C[C@@H]2CC[C@H]1N2C [COCAINE],0.41
13,O=C(O[C@@H]1C[C@@H]2C[C@H]3C[C@H](C1)N2CC3=O)c1c[nH]c2ccccc12 [DOLASETRON],2.6
14,CCCc1nn(C)c2c(=O)[nH]c(-c3cc(S(=O)(=O)N4CCN(C)CC4)ccc3OCC)nc12,2.29
15,O=C(CCCN1CC=C(n2c(=O)[nH]c3ccccc32)CC1)c1ccc(F)cc1 [DROPERIDOL],2.25
